Test results as given in patent US20220193064A1, “MEDICAMENT FOR TREATING CANCER” (CHIOME BIOSCIENCE INC., priority 2019, published 2022).
Read-outs that look alike come from different tables or passages of the source.

B1: HuBA-1-3D antibody: humanized anti-hDLK-1 antibody from WO2014/054820; H chain V region SEQ ID NO: 36, L chain V region SEQ ID NO: 46; GlymaxX produced (antibody, V domains shown)
VH: QVQLVQSGAEVKKPGASVKVSCKGSGYTFTDYAMHWVRQAPGQGLEWIGVISTYYGNTNYNQKFKGKATMTVDKSTSTAYMELRSLRSDDTAVYYCARGGLREYYYAMDYWGQGTMVTVSS
VL: DIVMTQSPDSLAVSLGERATINCKSSQSLLNSSNQKNYLAWYQQKPGQPPKLLVYFASTRESGVPDRFSGSGSGTDFTLTISSLQAEDVAVYYCQQHYSTPPTFGQGTKLEIK
modifications: GlymaxX glycoengineered
notes: humanized anti-hDLK-1 antibody from WO2014/054820; GlymaxX produced

Columns and labels:
Hep3B xenograft model [1] = assay: combined effect of lenvatinib and anti-hDLK-1 antibody on tumorigenesis inhibitory activity, Hep3B xenograft model; type: in vivo, NOD/ShiJic-scidJcl mice; conditions: for tumor weight: tumors collected on final day of observation (Day 38)
Excerpt: Using a Hep3B xenograft model, lenvatinib mesylate and anti-hDLK-1 antibody were studied for their combined effect on tumorigenesis inhibitory activity.
(§1) The lenvatinib mesylate used here was commercially available (hereinafter simply referred to as “lenvatinib” in this example). The anti-hDLK-1 antibody used here was “HuBA-1-3D-1-A24G/T73K antibody” found in WO2014/054820 (hereinafter simply referred to as “HuBA-1-3D antibody” in this example), and DNA encoding this antibody protein was constructed in accordance with the procedures shown in WO2014/054820 (see the Example section in the specification), followed by production and preparation of this antibody protein in host cells using the GlymaxX® technology (ProBioGen AG; see https://www.probiogen.de/genetic-glyco-engineering-adcc-glymaxx.html). It should be noted that the HuBA-1-3D-1-A24G/T73K antibody used here has an H chain V region consisting of the amino acid sequence shown in SEQ ID NO: 36 and an L chain V region consisting of the amino acid sequence shown in SEQ ID NO: 46.
1×10^6 Hep3B cells were transplanted subcutaneously into the right flank of female NOD/ShiJic-scidJcl mice at 6 to 7 weeks of age (Day 0). At the stage where the mean tumor volume reached around 100 mm^3 (Day 14), these mice were divided into the following groups: the control group (N=8, 103.5±18.1 mm^3), the group receiving lenvatinib (3 mg/kg body weight) (N=8, 102.8±16.8 mm^3), the group receiving HuBA-1-3D antibody (1 mg/kg body weight) (N=8, 102.7±15.0 mm^3), and the group receiving both lenvatinib (3 mg/kg body weight) and HuBA-1-3D antibody (1 mg/kg body weight) (N=8, 102.5±12.5 mm^3) (hereinafter referred to as the group receiving lenvatinib+HuBA-1-3D antibody). For a period of 12 days starting from Day 14, HuBA-1-3D antibody was administered twice a week (4 times in total; Days 14, 18, 22 and 25), and lenvatinib was administered 5 times a week (administration for 5 days and withdrawal for 2 days) (10 times in total; Days 14, 15, 16, 17, 18, 21, 22, 23, 24 and 25). The tumor volume was measured at a frequency of twice a week, and an animal whose tumor volume reached 1500 mm^3 was excluded from observation.

HepG2 xenograft model [2] = assay: combined effect of lenvatinib and anti-hDLK-1 antibody on tumorigenesis inhibitory activity, HepG2 xenograft model; type: in vivo, NOD/ShiJic-scidJcl mice
Excerpt: Using a HepG2 xenograft model, lenvatinib mesylate and anti-hDLK-1 antibody were studied for their combined effect on tumorigenesis inhibitory activity.
as §1
5×10^6 HepG2 cells were transplanted subcutaneously into the right flank of female NOD/ShiJic-scidJcl mice at 7 weeks of age (Day 0). At the stage where the mean tumor volume reached around 100 mm^3 (Day 10), these mice were divided into the following groups: the control group (N=8, 118.4±15 6 mm^3), the group receiving lenvatinib (10 mg/kg body weight) (N=8, 118.8±15.2 mm^3), the group receiving HuBA-1-3D antibody (1 mg/kg body weight) (N=8, 119.8±12.9 mm^3), and the group receiving both lenvatinib (10 mg/kg body weight) and HuBA-1-3D antibody (1 mg/kg body weight) (N=8, 119.7±13.4 mm^3) (hereinafter referred to as the group receiving lenvatinib+HuBA-1-3D antibody). For a period of 12 days starting from Day 10, HuBA-1-3D antibody was administered twice a week (4 times in total; Days 10, 13, 17 and 21), and lenvatinib was administered 5 times a week (administration for 5 days and withdrawal for 2 days) (10 times in total; Days 10, 11, 12, 13, 14, 17, 18, 19, 20 and 21). The tumor volume was measured at a frequency of twice a week, and an animal whose tumor volume reached 1500 mm^3 was excluded from observation.

Hep3B xenograft model [3] = assay: sensitivity to lenvatinib in Hep3B xenograft therapeutic model; type: in vivo, NOD/SCID mice; conditions: Day 29; for tumor volume (mean±standard deviation): 5 times a week, N=8; for tumor volume ratio (T/C) relative to the vehicle group: P<0.05
Excerpt: (§2) Two cell lines (Hep3B and HepG2) derived from human hepatocellular carcinoma were compared for their sensitivity to lenvatinib mesylate (commercially available; hereinafter simply referred to as “lenvatinib” in this example) in xenograft therapeutic models.
In a Hep3B xenograft model, NOD/SCID mice were transplanted with the cells subcutaneously, and then divided into groups of 8 mice each at the time when the mean tumor volume exceeded 100 mm^3 (Day 14), and administration was started on the same day. The administration was conducted at a dose of 10 μL/g per mouse body weight via the oral route with an oral sonde, 5 times a week (administration for 5 days and withdrawal for 2 days) (12 times in total; Days 14, 15, 16, 17, 18, 21, 22, 23, 24, 25, 28 and 29) until the final day of the test. The tumor volume (mean±standard deviation) at 29 days after transplantation (Day 29; the final day of the test) was 1050.3±553.8 mm^3 in the group receiving vehicle (water for injection) (N=8), 400.9±160.9 mm^3 in the group receiving lenvatinib (3 mg/kg) (N=8), 200.2±133.3 mm^3 in the group receiving lenvatinib (10 mg/kg) (N=8), and 136.2±33.8 mm^3 in the group receiving lenvatinib (30 mg/kg) (N=8). The tumor volume ratio (T/C) relative to the vehicle group on Day 29 was 38.2% (P<0.05), 19.1% (P<0.05) and 13.0% (P<0.05), respectively, in the groups receiving lenvatinib (3, 10 and 30 mg/kg) (FIG. 3A).

HepG2 xenograft model [4] = assay: sensitivity to lenvatinib in HepG2 xenograft therapeutic model; type: in vivo, NOD/SCID mice; conditions: Day 28; for tumor volume (mean±standard deviation): 5 times a week, N=8; for tumor volume ratio (T/C) relative to the vehicle group: P<0.05
Excerpt: as §2
NOD/SCID mice were transplanted with the cells subcutaneously, and then divided into groups of 8 mice each at the time when the mean tumor volume exceeded 100 mm^3 (Day 10), and administration was started on the same day. The administration was conducted at a dose of 10 μL/g per mouse body weight via the oral route with an oral sonde, 5 times a week (administration for 5 days and withdrawal for 2 days) (14 times in total; Days 10, 11, 12, 13, 14, 17, 18, 19, 20, 21, 24, 25, 26 and 27) until the day before the final day of the test. The tumor volume (mean±standard deviation) at 28 days after transplantation (Day 28; the final day of the test) was 1163.0±205.1 mm^3 in the group receiving vehicle (water for injection) (N=8), 892.5±220.7 mm^3 in the group receiving lenvatinib (3 mg/kg) (N=8), 506.8±215.7 mm^3 in the group receiving lenvatinib (10 mg/kg) (N=8), and 380.0±146.8 mm^3 in the group receiving lenvatinib (30 mg/kg) (N=8). The tumor volume ratio (T/C) relative to the vehicle group on Day 28 was 76.7% (P<0.05), 43.6% (P<0.05) and 32.7% (P<0.05), respectively, in the groups receiving lenvatinib (3, 10 and 30 mg/kg) (FIG. 3B).

[5] = system: unresectable hepatocellular carcinoma; conditions: cited from earlier work
[6] = Day 25 (final day of administration), lenvatinib 3 mg/kg 5 times a week, HuBA-1-3D antibody 1 mg/kg twice a week, N=8
[7] = Day 31 (6 days after completion of administration), lenvatinib 3 mg/kg, HuBA-1-3D antibody 1 mg/kg
[8] = Day 38 (13 days after completion of administration), lenvatinib 3 mg/kg, HuBA-1-3D antibody 1 mg/kg
[9] = lenvatinib 3 mg/kg, HuBA-1-3D antibody 1 mg/kg
[10] = Day 21 (final day of administration), lenvatinib 10 mg/kg 5 times a week, HuBA-1-3D antibody 1 mg/kg twice a week, N=8
[11] = Day 31 (10 days after completion of administration), lenvatinib 10 mg/kg, HuBA-1-3D antibody 1 mg/kg, N=8
[12] = Day 34 (13 days after completion of administration), lenvatinib 10 mg/kg, HuBA-1-3D antibody 1 mg/kg
[13] = primary therapeutic agent, unresectable hepatocellular carcinoma, whole treatment group

Molecule | tumor volume (Hep3B xenograft model [1]; [6]) | tumor volume (Hep3B xenograft model [1]; [7]) | tumor volume (Hep3B xenograft model [1]; [8]) | tumor weight (Hep3B xenograft model [1]; [9]) | tumor volume (HepG2 xenograft model [2]; [10]) | tumor volume (HepG2 xenograft model [2]; [11]) | tumor volume (HepG2 xenograft model [2]; [12]) | efficacy [5, 13] | also measured
COc1cc2nccc(Oc3ccc(NC(=O)NC4CC4)c(Cl)c3)c2cc1C(N)=O [lenvatinib, 4-[3-chloro-4-(cyclopropylcarbamoylamino)phenoxy]-7-methoxy-quinoline-6-carboxamide] | 268.1±175.7 mm^3 | 572.2±456.0 mm^3 | 1148.5±591.0 mm^3 | 841.1 ± 515.8 mg | 326.2±188.7 mm^3 | 817.4±583.4 mm^3 | 796.2±461.7 mm^3 | 40.6% | animals sacrificed whose tumor volume exceeded 1500 mm^3 (HepG2 xenograft model [2]; Day 31, lenvatinib 10 mg/kg): one of the 8 animals; tumor volume (mean±standard deviation) (Hep3B xenograft model [3]; lenvatinib 3 mg/kg oral): 400.9±160.9 mm^3; tumor volume ratio (T/C) relative to the vehicle group (Hep3B xenograft model [3]; lenvatinib 3 mg/kg): 38.2%; tumor volume (mean±standard deviation) (Hep3B xenograft model [3]; lenvatinib 10 mg/kg oral): 200.2±133.3 mm^3; tumor volume ratio (T/C) relative to the vehicle group (Hep3B xenograft model [3]; lenvatinib 10 mg/kg): 19.1%; tumor volume (mean±standard deviation) (Hep3B xenograft model [3]; lenvatinib 30 mg/kg oral): 136.2±33.8 mm^3; tumor volume ratio (T/C) relative to the vehicle group (Hep3B xenograft model [3]; lenvatinib 30 mg/kg): 13.0%; tumor volume (mean±standard deviation) (HepG2 xenograft model [4]; lenvatinib 3 mg/kg oral): 892.5±220.7 mm^3; tumor volume ratio (T/C) relative to the vehicle group (HepG2 xenograft model [4]; lenvatinib 3 mg/kg): 76.7%; tumor volume (mean±standard deviation) (HepG2 xenograft model [4]; lenvatinib 10 mg/kg oral): 506.8±215.7 mm^3; tumor volume ratio (T/C) relative to the vehicle group (HepG2 xenograft model [4]; lenvatinib 10 mg/kg): 43.6%; tumor volume (mean±standard deviation) (HepG2 xenograft model [4]; lenvatinib 30 mg/kg oral): 380.0±146.8 mm^3; tumor volume ratio (T/C) relative to the vehicle group (HepG2 xenograft model [4]; lenvatinib 30 mg/kg): 32.7%; efficacy ([5]; Japanese population (of 81 patients) assigned to the lenvatinib group): 46.9%
CNC(=O)c1cc(Oc2ccc(NC(=O)Nc3ccc(Cl)c(C(F)(F)F)c3)cc2)ccn1 [sorafenib] |  |  |  |  |  |  |  | 12.4% | 
B1 | 144.6±111.2 mm^3 | 92.9±79.3 mm^3 | 402.3±364.4 mm^3 | 392.3 ± 412.9 mg | 116.4±42.4 mm^3 | 394.0±169.8 mm^3 | 584.1±241.9 mm^3 |  | 
